Test results: patent US11572508B2, “Non-linear surfactant” (Powdermet, Inc., priority 2018, dated 2023)

Experiments:
[1] = emulsion suspension of liquid epoxy resin: particle size dispersion, suspension stability, pumping through sand packs; assay type: physicochemical; conditions: 71 mM surfactant
Source text: The suspension was maintained for up to 1 month unchanged.

[2] = pH-controlled solubility and rock-face adsorption of isoelectric surfactant; assay type: physicochemical
Source text: An example of an isoelectric non-linear molecular surfactant is a modified rigid ring structure with a zwitterionic to control solubility and surface activity. Molecular surfactant is defined as a group of atoms bonded together, representing the smallest fundamental unit of a chemical compound. In one non-limiting descriptive example, cholic acid is bound to a zwitterionic bi-functional compound, such as threonine. One (1) equivalent of cholic acid is suspended in an aprotic polar solvent, tetrahydrofuran with the addition of a base catalysis, pyridine. The primed rigid ring moiety structure is titrated with one (1) to three (3) equivalents of a zwitterionic coupling agent, and/or silane threonine, in an aprotic polar solvent. Purified product has applications in surface modification chemistry across materials and production markets. One non-limiting identified application is the oil and gas industry's unconventional resource collections through improving production recovery by controlling the rock wettability and reducing the translation motion energy through rock porosity and fractures. The zwitterionic nature of the isoelectric non-linear molecular surfactant enables the production recovery increase by allowing the production team to control when the surfactant becomes insoluble and favors surface adsorption to the formation's porous and fracture surface. […]

SMILES	time suspension was maintained unchanged ([1]; 23 wt. % solids epoxy resin suspension)	particle size dispersion D50 of nanoemulsion ([1]; 23 wt. % solids suspension of bisphenol A/epichlorohydrin-derived liquid epoxy resin) [nm]	pH at which surfactant is triggered to adsorb to the rock face ([2]; formation rock face)	pH at which surfactant is soluble in pumping solutions ([2]; pumping solutions)
C[C@H](CCC(=O)O)[C@H]1CC[C@H]2[C@@H]3[C@H](O)C[C@@H]4C[C@H](O)CC[C@]4(C)[C@H]3C[C@H](O)[C@]12C [3α,7α,12α-trihydroxy-5β-cholan-24-oic acid]	up to 1 month	450	–	–
CC(O)C(NC(=O)CCC(C)C1CCC2C3C(O)CC4CC(O)CCC4(C)C3CC(O)C12C)C(=O)O (stereo not shown)	–	–	5.6	below 5.5
